Marks after values point to notes of the source that are not given here.
Tests used:
[1] = tested on: acetic acid-induced writhing; assay: acetic acid-induced writhing test (peripheral analgesic); type: in vivo, albino mice; settings: for 1/(observed property): 1/(% inhibition) peripheral analgesic; for Observed property: % inhibition/protection peripheral analgesic; for Potency: % inhibition/protection compared to indomethacin; for Writing reflex ± SE: number of writhing counted for 30 min; for Writing reflex ± SE / % Inhibition/protection: 10 mg/kg indomethacin mol equivalent i.p.; for % Inhibition/protection: vs control
Protocol: Peripheral analgesic activity was measured by the standard acetic acid-induced writhing test in mice. […] One hour after the i.p. administration, each mouse was injected with 0.1 ml of 1% acetic acid solution i.p. The control group animals were given sterile/distilled water with few drops of Tween 80. Starting 5 min after the acetic acid injection, the number of muscular contractions in each mouse was counted for 30 min. A significant reduction in the number of writhing by a conjugate compared with control animals was considered as a positive analgesic response. Percentage protection was calculated according to equ. (3), where n is the average number of writhing in the control group and n′ is the average number of writhing in the treated group. The % potency was calculated by equ. (4) (Table 2).

hot plate latency = assay: hot plate test (central analgesic); type: in vivo, albino mice; settings: for Observed property: % Protection central analgesic (120 min); for Latency period ± SE: 10 mg/kg indomethacin mol equivalent i.p., cutoff 15 seconds; for % Protection: vs control; for Potency: at 120 min. compared to indomethacin
Protocol: An in vivo standard hot plate test was performed. […] The control group animals were given sterile/distilled water with few drops of Tween 80. The maximum cutoff time was 15 seconds to prevent tissue damage. Response latencies were measured at 30, 60, 90 and 120 inns. The % protection was calculated by equ. (5), where, Ti, To are the latency time mean of the tested compound and control group respectively (Table 3).

COX-1 = COX-1 (UniProt P05979); type: biochemical, human; settings: ± SD
Chain of COX-1 (P05979 whole entry): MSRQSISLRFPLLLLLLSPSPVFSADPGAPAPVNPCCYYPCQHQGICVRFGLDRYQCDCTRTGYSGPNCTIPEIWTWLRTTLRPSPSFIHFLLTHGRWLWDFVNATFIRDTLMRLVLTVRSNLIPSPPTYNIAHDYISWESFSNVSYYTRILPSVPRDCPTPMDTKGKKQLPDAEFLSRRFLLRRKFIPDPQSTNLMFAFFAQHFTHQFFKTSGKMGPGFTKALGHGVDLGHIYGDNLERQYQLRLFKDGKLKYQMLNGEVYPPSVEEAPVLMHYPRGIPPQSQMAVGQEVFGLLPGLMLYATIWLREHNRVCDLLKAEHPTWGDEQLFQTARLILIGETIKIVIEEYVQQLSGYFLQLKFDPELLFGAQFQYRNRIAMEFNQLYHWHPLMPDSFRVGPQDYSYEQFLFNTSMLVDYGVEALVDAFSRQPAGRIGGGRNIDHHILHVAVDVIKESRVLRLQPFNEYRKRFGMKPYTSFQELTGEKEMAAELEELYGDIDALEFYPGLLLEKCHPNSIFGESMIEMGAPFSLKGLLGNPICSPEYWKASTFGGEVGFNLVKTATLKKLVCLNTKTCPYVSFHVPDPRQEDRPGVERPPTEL
Description: (§1) Rev. […] Thromb. Vasc. […] Rev. […] Rev. […] Rev. Oncol. Hematol. […] Curr. Pharm. Des. […] Luong, et al., Nat. Struct. […] A. and Marnett, L. J., Chem. Rev. […] Drug Discov. […] Biomol.

COX-2 = target: T1, COX-2 (Homo sapiens, UniProt P35354); assay: Inhibition of COX-2; type: biochemical
T1 construct: purchased BioVision Incorporated K547-100 and K548-100 (for COX-1/2)
T1 sequence (P35354 18-604): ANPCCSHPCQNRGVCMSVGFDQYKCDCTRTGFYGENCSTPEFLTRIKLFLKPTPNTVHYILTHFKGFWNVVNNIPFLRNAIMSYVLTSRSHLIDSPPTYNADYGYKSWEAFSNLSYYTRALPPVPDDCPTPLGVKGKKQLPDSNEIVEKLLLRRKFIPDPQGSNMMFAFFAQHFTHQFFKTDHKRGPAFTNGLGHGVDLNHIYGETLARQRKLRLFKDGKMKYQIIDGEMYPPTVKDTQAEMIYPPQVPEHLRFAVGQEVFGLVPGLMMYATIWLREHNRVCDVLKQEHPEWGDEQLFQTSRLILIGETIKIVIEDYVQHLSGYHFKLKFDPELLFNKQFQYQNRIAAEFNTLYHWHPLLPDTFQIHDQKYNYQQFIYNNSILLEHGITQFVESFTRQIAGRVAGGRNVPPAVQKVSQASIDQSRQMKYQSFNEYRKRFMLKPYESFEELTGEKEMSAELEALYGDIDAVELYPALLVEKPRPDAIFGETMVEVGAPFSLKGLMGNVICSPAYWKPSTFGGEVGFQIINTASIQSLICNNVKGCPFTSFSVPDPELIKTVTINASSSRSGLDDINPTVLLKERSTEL
Description: as §1

gastric mucosa = assay: ulcerogenic liability; settings: for ulcers or erosions to the gastric / ulcerogenic liability (in words): mice; for ulcers or erosions to the gastric / ulcerogenic liability (in words) / % Incidence of ulcer divided by 10 / Average of ulcer number / Average severity of ulcer / Number of animals with ulcer: oral; for % Incidence of ulcer divided by 10 / Average of ulcer number / Average severity of ulcer / Number of animals with ulcer: three successive days, 10 mg/kg indomethacin mol equivalent; for Number of animals with ulcer: 6 animals; for Ulcer index: sum of the three values
Protocol: The ulcerogenic liability of conjugates was determined in albino mice following a standard method. Animals of either sex (pregnant females were excluded) weighing 20-25 g were divided into 8 groups of 6 animals each. The animals fasted 18 h before drug administration. […] The control group animals were given water with a few drops of Tween 80. The animals were sacrificed by cervical dislocation and the stomach was removed, opened along the greater curvature, and rinsed with saline. The gastric mucosa was examined with a magnifying lens (10×) for the presence of lesions and erosions. The ulcer index was calculated (Table 4) and the degree of ulcerogenic effect was expressed in terms of: (1) the percentage incidence of ulcers divided by 10; (2) average number of ulcers per stomach; and (3) average severity of ulcers. The ulcer index is the value that resulted from the sum of the above three values.

COc1ccc2c(c1)c(CC(=O)OCc1cn(-c3ccccc3OC)nn1)c(C)n2C(=O)c1ccc(Cl)cc1 [Compound 8e, (1-(2-Methoxyphenyl)-1H-1,2,3-triazol-4-yl)methyl 2-(1-(4-chlorobenzoyl)-5-methoxy-2-methyl-1H-indol-3-yl)acetate]
1/(observed property) [1]: 0.01238 | Observed property [1]: 80.8 | Observed property (hot plate latency): 28.9

COc1ccc2c(c1)c(CC(=O)OCc1cn(-c3ccccc3Cl)nn1)c(C)n2C(=O)c1ccc(Cl)cc1 [Compound 8a, (1-(2-Chlorophenyl)-1H-1,2,3-triazol-4-yl)methyl 2-(1-(4-chlorobenzoyl)-5-methoxy-2-methyl-H-indol-3-yl)acetate]
1/(observed property) [1]: 0.02028 | Potency [1]: 68.7% | Observed property [1]: 49.3 | Writing reflex ± SE [1]: 20.3 ± 1.8 | % Inhibition/protection [1]: 49.3% | Observed property (hot plate latency): 51.3 | Latency period ± SE (hot plate latency; After 30 min.): 12.19 s | % Protection (hot plate latency; After 30 min.): (82.5) % | Latency period ± SE (hot plate latency; After 60 min.): 13.51 s | % Protection (hot plate latency; After 60 min.): 1.7** (85.8) % | Latency period ± SE (hot plate latency; After 90 min.): 13.85 ± 1.4 s | % Protection (hot plate latency; After 90 min.): (55.4) % | Latency period ± SE (hot plate latency; After 120 min.): 13.63 ± 1.3 s | % Protection (hot plate latency; After 120 min.): (51.3) % | Potency (hot plate latency): 90.8%

Cc1ccc(-n2cc(COC(=O)C(C)c3ccc(CC(C)C)cc3)nn2)cc1 (centres unmarked) [Compound 5d, (1-(p-Tolyl)-1H-1,2,3-triazol-4-yl)methyl 2-(4-isobutylphenyl)propanoate]
1/(observed property) [1]: 0.01212 | Observed property [1]: 82.5 | Observed property (hot plate latency): 1.2 | IC50 (COX-1): 9.64 ± 0.27 µM | SI (COX-2; SI=IC50 (COX-1)/IC50 (COX-2)): 2.158 | IC50 (COX-2; ± SD): 4.47 ± 0.13 µM | ulcers or erosions to the gastric / ulcerogenic liability (in words) (gastric mucosa): none and No ulcerogenic liability | % Incidence of ulcer divided by 10 (gastric mucosa): 0 | Average of ulcer number (gastric mucosa): 0 | Average severity of ulcer (gastric mucosa): 0 | Number of animals with ulcer (gastric mucosa): 0 | Ulcer index (gastric mucosa): 0

COc1ccc2c(c1)c(CC(=O)OCc1cn(-c3ccc(C)cc3)nn1)c(C)n2C(=O)c1ccc(Cl)cc1 [Compound 8d, (1-(p-Tolyl)-1H-1,2,3-triazol-4-yl)methyl 2-(1-(4-chlorobenzoyl)-5-methoxy-2-methyl-1H-indol-3-yl)acetate]
1/(observed property) [1]: 0.016 | Observed property [1]: 62.5 | Observed property (hot plate latency): 48.6

COc1ccc2c(c1)c(CC(=O)OCc1cn(-c3ccc([N+](=O)[O-])cc3)nn1)c(C)n2C(=O)c1ccc(Cl)cc1 [Compound 8g, (1-(4-Nitrophenyl)-1H-1,2,3-triazol-4-yl)methyl 2-(1-(4-chlorobenzoyl)-5-methoxy-2-methyl-1H-indol-3-yl)acetate]
1/(observed property) [1]: 0.01038 | Observed property [1]: 96.3 | Observed property (hot plate latency): 2.7

CC(C)Cc1ccc(C(C)C(=O)OCc2cn(-c3ccc([N+](=O)[O-])cc3)nn2)cc1 (centres unmarked) [Compound 5g, (1-(4-Nitrophenyl)-1H-1,2,3-triazol-4-yl)methyl 2-(4-isobutylphenyl)propanoate]
1/(observed property) [1]: 0.01538 | Observed property [1]: 65.0 | Observed property (hot plate latency): 28.1

C#CCOC(=O)Cc1c(C)n(C(=O)c2ccc(Cl)cc2)c2ccc(OC)cc12 [Compound 7, prop-2-yn-1-yl 2-(1-(4-chlorobenzoyl)-5-methoxy-2-methyl-1H-indol-3-yl) acetate]
Potency [1]: 124.4% | Writing reflex ± SE [1]: 4.3 ± 0.5 | % Inhibition/protection [1]: 89.3% | Latency period ± SE (hot plate latency; After 30 min.): 6.68 s | % Protection (hot plate latency; After 30 min.): 2.0* (0.0) % | Latency period ± SE (hot plate latency; After 60 min.): 9.54 ± 1.6 s | % Protection (hot plate latency; After 60 min.): (31.2) % | Latency period ± SE (hot plate latency; After 90 min.): 11.18 ± 1.5 s | % Protection (hot plate latency; After 90 min.): (25.5) % | Latency period ± SE (hot plate latency; After 120 min.): 10.78 ± 1.8 s | % Protection (hot plate latency; After 120 min.): (19.6) % | Potency (hot plate latency): 34.7%

COc1ccc(-n2cc(COC(=O)C(C)c3ccc(CC(C)C)cc3)nn2)cc1 (centres unmarked) [Compound 5f, (1-(4-Methoxyphenyl)-1H-1,2,3-triazol-4-yl)methyl 2-(4-isobutylphenyl)propanoate]
1/(observed property) [1]: 0.0125 | Observed property [1]: 80.0 | Observed property (hot plate latency): 0.2

CC(C)Cc1ccc(C(C)C(=O)OCc2cn(-c3ccccc3Cl)nn2)cc1 (centres unmarked) [Compound 5a, (1-(2-Chlorophenyl)-1H-1,2,3-triazol-4-yl)methyl 2-(4-isobutylphenyl)propanoate]
1/(observed property) [1]: 0.01201 | Observed property [1]: 83.3 | % Inhibition/protection [1]: 83.3% | Observed property (hot plate latency): 54.5 | IC50 (COX-1): 17.2 ± 0.41 µM | ulcers or erosions to the gastric / ulcerogenic liability (in words) (gastric mucosa): none and No ulcerogenic liability | % Incidence of ulcer divided by 10 (gastric mucosa): 0 | Average of ulcer number (gastric mucosa): 0 | Average severity of ulcer (gastric mucosa): 0 | Number of animals with ulcer (gastric mucosa): 0 | Ulcer index (gastric mucosa): 0

COc1ccc2c(c1)c(CC(=O)OCc1cn(-c3ccc(Cl)cc3)nn1)c(C)n2C(=O)c1ccc(Cl)cc1 [Compound 8b, (1-(4-Chlorophenyl)-1H-1,2,3-triazol-4-yl)methyl 2-(1-(4-chlorobenzoyl)-5-methoxy-2-methyl-1H-indol-3-yl)acetate]
1/(observed property) [1]: 0.0216 | Observed property [1]: 46.3 | Observed property (hot plate latency): 9.7

COc1ccc(-n2cc(COC(=O)Cc3c(C)n(C(=O)c4ccc(Cl)cc4)c4ccc(OC)cc34)nn2)cc1 [Compound 8f, (1-(4-Methoxyphenyl)-1H-1,2,3-triazol-4-yl)methyl 2-(1-(4-chlorobenzoyl)-5-methoxy-2-methyl-1H-indol-3-yl)acetate]
1/(observed property) [1]: 0.01497 | Observed property [1]: 66.8 | Observed property (hot plate latency): 66.5

CC(C)Cc1ccc(C(C)C(=O)OCc2cn(-c3ccc(F)cc3)nn2)cc1 (centres unmarked) [Compound 5c, (1-(4-Fluorophenyl)-1H-1,2,3-triazol-4-yl)methyl 2-(4-isobutylphenyl)propanoate]
1/(observed property) [1]: 0.01201 | Observed property [1]: 83.3 | Observed property (hot plate latency): 18 | % protection compared with parent compound ibuprofen (hot plate latency; at 30 min): 1.8 folds

CC(C)Cc1ccc(C(C)C(=O)O)cc1 (centres unmarked) [Ibu, 2-(4-isobutylphenyl)propanoic acid, reference compound]
Potency [1]: 81.5% | % Inhibition/protection [1]: 58.5% | % Protection (hot plate latency; After 30 min.): (61.7) % | % Protection (hot plate latency; After 120 min.): (54.3) % | Potency (hot plate latency): 96.1% | % Incidence of ulcer divided by 10 (gastric mucosa): 3.33 | Average of ulcer number (gastric mucosa): 0.33 | Average severity of ulcer (gastric mucosa): 0.67 | Number of animals with ulcer (gastric mucosa): 2/6

COc1ccc2c(c1)c(CC(=O)OCc1cn(-c3ccc(F)cc3)nn1)c(C)n2C(=O)c1ccc(Cl)cc1 [Compound 8c, (1-(4-Fluorophenyl)-1H-1,2,3-triazol-4-yl)methyl 2-(1-(4-chlorobenzoyl)-5-methoxy-2-methyl-1H-indol-3-yl)acetate]
1/(observed property) [1]: 0.02421 | Observed property [1]: 41.3 | Observed property (hot plate latency): 48.1

CC(C)Cc1ccc(C(C)C(=O)OCc2cn(-c3ccc(Cl)cc3)nn2)cc1 (centres unmarked) [Compound 5b, (1-(4-Chlorophenyl)-1H-1,2,3-triazol-4-yl)methyl 2-(4-isobutylphenyl)propanoate]
1/(observed property) [1]: 0.01143 | Observed property [1]: 87.5 | % Inhibition/protection [1]: 87.5% | Observed property (hot plate latency): 27.1 | IC50 (COX-1): 119 ± 3.4 µM | ulcers or erosions to the gastric / ulcerogenic liability (in words) (gastric mucosa): none and No ulcerogenic liability | % Incidence of ulcer divided by 10 (gastric mucosa): 0 | Average of ulcer number (gastric mucosa): 0 | Average severity of ulcer (gastric mucosa): 0 | Number of animals with ulcer (gastric mucosa): 0 | Ulcer index (gastric mucosa): 0
